Drawing on patent publication US20230083012A1, “DIHYDROPYRIMIDINE DERIVATIVES AND USES THEREOF IN THE TREATMENT OF HBV INFECTION OR OF HBV-INDUCED DISEASES” (priority 2019, published 2023), this text covers EC50 and CC50 for 28 molecules.

Read-outs that look alike come from different tables or passages of the source.

The test system of one data set is HBV. Kind of data set: Anti-HBV activity in HepG2.2.15 cells (HBV DNA in culture medium by qPCR). The note with it: HepG2.2.15 cells, 6 days treatment, HBV DNA in culture medium quantified by real-time PCR, read-out: EC50. Format: cell-based. In short, it runs like this:
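HepG2.2.15 cells in 2% FBS medium at 37 °C were treated with compounds for 6 days, with medium and compound refreshed at day 3; 1:3 dilutions, 8 concentrations in triplicate, top 10 or 1 uM. HBV DNA in culture medium quantified by qPCR to derive EC50; CC50 from parallel plates (top 100 uM).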

Data set [1] in a line: Cytotoxicity determination in HepG2.2.15 cells (CCK-8 cell viability). Format: cell-based. The note with it: human, 6 days treatment, CCK-8 assay, highest concentration 100 uM. In short, it runs like this:
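HepG2.2.15 cells seeded at 5,000 cells/well in 2% FBS medium, exposed 6 days to compounds (8-point 1:3 dilutions from 100 uM, triplicate), refreshed at day 3. Viability read by CCK-8 after 2.5 h at 37° C, absorbance 450 nm with 630 nm reference; CC50 calculated.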
On the technique in general: Formazan colour is commonly taken as a measure of viable cells.

Where [2] appears, read: Hepatitis B virus, HepG2.2.15, 144 h.

Regarding `CCOC(=O)C1=C(CN2CC(F)(F)[C@H]3[C@@H]2CCN3CC(C)(C)C(=O)O)NC(c2nccs2)=N[C@@H]1c1cccc(O)c1C` (single isomer, unassigned) [Compound 106, (cis)-3-(4-((5-(ethoxycarbonyl)-6-(3-hydroxy-2-methylphenyl)-2-(thiazol-2-yl)-3,6-dihydropyrimidin-4-yl)methyl)-6,6-difluorohexahydropyrrolo[3,2-b]pyrrol-1(2H)-yl)-2,2-dimethylpropanoic acid], the EC50 – broadly, the concentration giving half of the maximal effect – with HBV (setting [2]) came out at 0.02 µM. Besides, in data set [1], the midpoint of cytotoxicity, the CC50 at 6 days, lay at 39.5 µM.
For `CCOC(=O)C1=C(CN2CC(F)(F)[C@H]3[C@@H]2CCN3CCC(C)(C)c2nnn[nH]2)NC(c2nccs2)=N[C@H]1c1cccc(F)c1C` (single isomer, unassigned) [Compound 108] the same measures were 0.0004 µM and 13.1 µM.
For `CCOC(=O)C1=C(CN2CC(F)(F)[C@H]3[C@@H]2CCN3CC(C)(C)C(=O)NS(C)(=O)=O)NC(c2nccs2)=N[C@H]1c1cccc(F)c1C` (single isomer, unassigned) [Compound 109] the same measures were less than 0.001 µM and 7.3 µM.
For `CCOC(=O)C1=C(CN2CC(F)(F)[C@H]3[C@@H]2CCN3CCOC(C)(C)C(=O)O)NC(c2nccs2)=N[C@H]1c1cccc(F)c1C` (single isomer, unassigned) [Compound 111] the same measures were 0.0078 µM and 33.4 µM.
Turning to `CCOC(=O)C1=C(CN2CC(F)(F)C3[C@@H]2CCN3[C@H]2C[C@](C)(C(=O)O)C2)NC(c2nccs2)=N[C@H]1c1cccc(F)c1C` (single isomer, unassigned) [Compound 112A], the EC50 in the data set on HBV (setting [2]) is 0.0046 µM. Besides, the 50% cytotoxic concentration (CC50) – broadly, the concentration that lowers cell viability or growth by half – at 6 days in data set [1] is 28.7 µM.
For `CCOC(=O)C1=C(CN2CC(F)(F)C3[C@@H]2CCN3[C@H]2C[C@@](C)(C(=O)O)C2)NC(c2nccs2)=N[C@H]1c1cccc(F)c1C` (single isomer, unassigned) [Compound 112B] the same measures were 0.0047 µM and 23.6 µM.
The like results for `CCOC(=O)C1=C(CN2CC(F)(F)C3[C@@H]2CCN3C2CC(C)(C(=O)O)C2)NC(c2nccs2)=N[C@H]1c1cccc(F)c1C` (single isomer, unassigned) [Compound 112] were, in that order, 0.0053 µM and 28.6 µM.
The like results for `[H][C@]1(N2CC[C@H]3[C@@H]2C(F)(F)CN3CC2=C(C(=O)OCC)[C@H](c3cccc(F)c3C)N=C(c3nccs3)N2)C[C@@]2(C[C@@H](C(=O)O)C2)C1` (single isomer, unassigned) [Compound 113A] were, in that order, 0.005 µM and more than 3 µM.
For `[H][C@]1(C(=O)O)C[C@@]2(C1)C[C@@]([H])(N1CC[C@H]3[C@@H]1C(F)(F)CN3CC1=C(C(=O)OCC)[C@H](c3cccc(F)c3C)N=C(c3nccs3)N1)C2` (single isomer, unassigned) [Compound 113B], the EC50 in the data set on HBV (setting [2]) is less than 0.001 µM. The molecule also gave a CC50 at 6 days in data set [1] of more than 3.1 µM.
For `CCOC(=O)C1=C(CN2CC(F)(F)[C@H]3[C@@H]2CCN3C2CC3(CC(C(=O)O)C3)C2)NC(c2nccs2)=N[C@H]1c1cccc(F)c1C` (single isomer, unassigned) [Compound 113] the same measures were 0.0022 µM and 12.5 µM.
The like results for `CCOC(=O)C1=C(CN2CC(F)(F)[C@H]3[C@@H]2CCN3C2CCC(C(=O)O)C2)NC(c2nccs2)=N[C@H]1c1cccc(F)c1C` (single isomer, unassigned) [Compound 115] were, in that order, 0.0031 µM and 24 µM.
For `CCOC(=O)C1=C(CN2CC(F)(F)[C@H]3[C@@H]2CCN3C[C@H]2C[C@@](C)(C(=O)O)C2)NC(c2nccs2)=N[C@H]1c1cccc(F)c1C` (single isomer, unassigned) [Compound 116A] the same measures were 0.0008 µM and 12.1 µM.
Consider `CCOC(=O)C1=C(CN2CC(F)(F)[C@H]3[C@@H]2CCN3C[C@H]2C[C@](C)(C(=O)O)C2)NC(c2nccs2)=N[C@H]1c1cccc(F)c1C` (single isomer, unassigned) [Compound 116B], for which the concentration for a half-maximal effect (EC50) in the data set on HBV (setting [2]) came to 0.0025 µM. The molecule further came in with a half-maximal cytotoxic concentration (CC50) at 6 days in data set [1] of 10.6 µM.
For `CCOC(=O)C1=C(CN2CC(F)(F)[C@H]3[C@@H]2CCN3CCC2(C(=O)O)CC2)NC(c2nccs2)=N[C@H]1c1cccc(F)c1C` (single isomer, unassigned) [Compound 117] the same measures were less than 0.0005 µM and 24.7 µM.
The like results for `CCOC(=O)C1=C(CN2CC(F)(F)[C@H]3[C@@H]2CCN3CCC(C)(C)C(=O)O)NC(c2nc(C)cs2)=N[C@H]1c1cccc(F)c1C` (single isomer, unassigned) [Compound 118] were, in that order, 0.0054 µM and 12.7 µM.
The like results for `CCOC(=O)C1=C(CN2C[C@H](F)[C@H]3[C@@H]2CCN3CCC(C)(C)C(=O)O)NC(c2nccs2)=N[C@H]1c1cccc(F)c1C` (single isomer, unassigned) [Compound 119] were, in that order, 0.0555 µM and 20.2 µM.
Regarding `[H][C@]1(N2CC[C@H]3[C@@H]2C(F)(F)CN3CC2=C(C(=O)OC)[C@H](c3cccc(F)c3F)N=C(c3nccs3)N2)C[C@@]2(C[C@@H](C(=O)O)C2)C1` (single isomer, unassigned) [Compound 120A], the EC50 in the data set with HBV (setting [2]) was 0.012 µM. The CC50 at 6 days in data set [1] turned out to be 28.1 µM.
Regarding `[H][C@]1(N2CC[C@H]3[C@@H]2C(F)(F)CN3CC2=C(C(=O)OC)[C@H](c3cccc(F)c3F)N=C(c3nccs3)N2)C[C@]2(C[C@@H](C(=O)O)C2)C1` (single isomer, unassigned) [Compound 120B], the EC50 with HBV was 0.013 µM. It took 19.9 µM to reach half-maximal cytotoxicity in data set [1] (CC50 at 6 days).
Consider `CCOC(=O)C1=C(CN2CC(F)(F)[C@H]3[C@@H]2CCN3C[C@@H](CC)C(=O)O)NC(c2nccs2)=N[C@@H]1c1ccc(F)nc1C` (single isomer, unassigned) [Compound 122A, 2-(((cis)-4-((5-(ethoxycarbonyl)-6-(6-fluoro-2-methylpyridin-3-yl)-2-(thiazol-2-yl)-3,6-dihydropyrimidin-4-yl)methyl)-6,6-difluorohexahydropyrrolo[3,2-b]pyrrol-1(2H)-yl)methyl)butanoic acid], for which, in the data set on HBV (setting [2]), the EC50 was determined as 0.006 µM. In data set [1], this molecule returned a CC50 at 6 days of more than 100 µM.
For `CCOC(=O)C1=C(CN2CC(F)(F)[C@H]3[C@@H]2CCN3[C@H]2C[C@@H](CC(=O)O)C2)NC(c2nccs2)=N[C@H]1c1cccc(F)c1C` (single isomer, unassigned) [Compound 123A] the same measures were 0.008 µM and 18.6 µM.
The like results for `CCOC(=O)C1=C(CN2CC(F)(F)[C@H]3[C@@H]2CCN3[C@H]2C[C@H](CC(=O)O)C2)NC(c2nccs2)=N[C@H]1c1cccc(F)c1C` (single isomer, unassigned) [Compound 123B] were, in that order, 0.009 µM and 16.1 µM.
The like results for `CCOC(=O)C1=C(CN2CC(F)(F)[C@H]3[C@@H]2CCN3c2nc(C(=O)O)cs2)NC(c2nccs2)=N[C@H]1c1cccc(F)c1C` (single isomer, unassigned) [Compound 124] were, in that order, 0.0242 µM and 7.7 µM.
Take `COC(=O)C1=C(CN2CC(F)(F)[C@H]3[C@@H]2CCN3CCC(C)(C)C(=O)O)NC(c2ncoc2C)=N[C@H]1c1ccc(F)cc1Cl` (single isomer, unassigned) [Compound 125, 4-((cis)-4-((6-(2-chloro-4-fluorophenyl)-5-(methoxycarbonyl)-2-(5-methyloxazol-4-yl)-3,6-dihydropyrimidin-4-yl)methyl)-6,6-difluorohexahydropyrrolo[3,2-b]pyrrol-1(2H)-yl)-2,2-dimethylbutanoic acid]: the EC50 in the data set with HBV (setting [2]) is 0.0093 µM. In data set [1], this molecule displayed a CC50 at 6 days of 58.4 µM.
The like results for `COC(=O)C1=C(CN2CC(F)(F)[C@H]3[C@@H]2CCN3CCC(C)(C)C(=O)O)NC(c2nccs2)=N[C@H]1c1ccc(F)c(F)c1Cl` (single isomer, unassigned) [Compound 126] were, in that order, 0.0034 µM and 27.2 µM.
With `COC(=O)C1=C(CN2CC(F)(F)[C@H]3[C@@H]2CCN3CCC(C)(C)C(=O)O)NC(c2nccs2)=N[C@H]1c1ccc(F)cc1Cl` (single isomer, unassigned) [Compound 127, 4-((cis)-4-((6-(2-Chloro-4-fluorophenyl)-5-(methoxycarbonyl)-2-(thiazol-2-yl)-3,6-dihydropyrimidin-4-yl)methyl)-6,6-difluorohexahydropyrrolo[3,2-b]pyrrol-1(2H)-yl)-2,2-dimethylbutanoic acid], the EC50 in the data set with HBV (setting [2]) turned out to be 0.0016 µM. In data set [1], this molecule showed a cytotoxic concentration (CC50) at 6 days of 47.2 µM.
The like results for `COC(=O)C1=C(CN2CC(F)(F)[C@H]3[C@@H]2CCN3CCC(C)(C)C(=O)O)NC(c2nccs2)=N[C@H]1c1cccc(F)c1Cl` (single isomer, unassigned) [Compound 128, 4-((cis)-4-((6-(2-Chloro-3-fluorophenyl)-5-(methoxycarbonyl)-2-(thiazol-2-yl)-3,6-dihydropyrimidin-4-yl)methyl)-6,6-difluorohexahydropyrrolo[3,2-b]pyrrol-1(2H)-yl)-2,2-dimethylbutanoic acid] were, in that order, 0.0008 µM and 40.1 µM.
For `CCOC(=O)C1=C(CN2CC(F)(F)[C@H]3[C@@H]2CCN3CC[C@H]2C[C@@H](C(=O)O)C2)NC(c2nccs2)=N[C@H]1c1cccc(F)c1C` (single isomer, unassigned) [Compound 129A] the same measures were 0.0077 µM and 10.3 µM.
The like results for `CCOC(=O)C1=C(CN2CC(F)(F)[C@H]3[C@@H]2CCN3CC[C@H]2C[C@H](C(=O)O)C2)NC(c2nccs2)=N[C@H]1c1cccc(F)c1C` (single isomer, unassigned) [Compound 129B] were, in that order, 0.0029 µM and 12.4 µM.
